Measured values: US20030105158A1, “Hydrates of a neuraminic acid compound and crystalline forms thereof” (SANKYO COMPANY, LIMITED, priority 2000, published 2003)
Counter-ions that a name gives are not always drawn.

Assay: Stability test (storage stability, residual amount by HPLC)
Type: physicochemical
Conditions: relative to initial content (100%)
Experimental: In the stability test, the crystals of the compound (I) of the present invention prepared in Example 1 and as reference, the amorphous powder (trifluoroacetate salt) of compound (I) described in Example 35 of the specification of Japanese Patent Application Publication No. Hei 10-330373 were used. These compounds were stored separately at 40° C. in a desiccator with a relative humidity of 75% for 56 days (8 weeks), and the content of these compounds was measured on 14 (2 weeks), 28 (4 weeks) and 56 days (8 weeks) after the initiation of the storage.
Furthermore, these compounds were also stored separately at 60° C. in a desiccator with silica gel for 56 days (8 weeks), and the content of these compounds was measured in the same manner as that described above.
The contents of these compounds were determined quantitatively with high performance liquid chromatography (HPLC), and the amount of the remaining compounds (%) at each sampling point was calculated based on the initial content (100%) determined immediately before the storage.

[1] = stored at 40° C. in a desiccator with a relative humidity of 75%, 14 days
[2] = stored at 40° C. in a desiccator with a relative humidity of 75%, 28 days
[3] = stored at 40° C. in a desiccator with a relative humidity of 75%, 56 days
[4] = stored at 60° C. in a desiccator with silica gel, 14 days
[5] = stored at 60° C. in a desiccator with silica gel, 28 days
[6] = stored at 60° C. in a desiccator with silica gel, 56 days

Structure (SMILES)	Residual amount (amount of the remaining compound) [1] [%]	Residual amount (amount of the remaining compound) [2] [%]	Residual amount (amount of the remaining compound) [3] [%]	Residual amount (amount of the remaining compound) (stored at 40° C. in a desiccator with a relative humidity of 75%, 56 days, listed as crystals (hydrated crystals) of compound (I)) [%]	Residual amount (amount of the remaining compound) [4] [%]	Residual amount (amount of the remaining compound) [5] [%]	Residual amount (amount of the remaining compound) [6] [%]	Residual amount (amount of the remaining compound) (stored at 60° C. in a desiccator with silica gel, 56 days, listed as crystals (hydrated crystals) of compound (I))	Residual amount (amount of the remaining compound) (stored at 40° C. in a desiccator with a relative humidity of 75%, 56 days, listed as amorphous powder (trifluoacetate salt) of compound (I)) [%]	Residual amount (amount of the remaining compound) (stored at 60° C. in a desiccator with silica gel, 56 days, listed as amorphous powder (trifluoacetate salt) of compound (I)) [%]
CCCCCCCC(=O)OC[C@@H](O)[C@@H](OC)[C@@H]1OC(C(=O)O)=C[C@H](NC(=N)N)[C@H]1NC(C)=O [Hydrated crystal of compound (I), 5-Acetamido-4-guanidino-9-O-octanoyl-2,3,4,5-tetradeoxy-7-O-methyl-D-glycero-D-galacto-non-2-enopyranosonic Acid Hydrate in Crystalline Form]	99.8	100.2	100.3	100	99.9	100.6	99.6	more than 99%		
CCCCCCCC(=O)OC[C@@H](O)[C@@H](OC)[C@@H]1OC(C(=O)O)=C[C@H](NC(=N)N)[C@H]1NC(C)=O [Amorphous powder of compound (I), trifluoroacetate salt of 5-acetamido-4-guanidino-9-O-octanoyl-2,3,4,5-tetradeoxy-7-O-methyl-D-glycero-D-galacto-non-2-enopyranosonic acid]	38.5	27.2	10.2		95.7	92.9	89.0		10.2	89
